Results reported in patent US20220296535A1, “Antibacterial Dosage Regime Using Cannabinoids” (Botanix Pharmaceuticals Limited, priority 2019, published 2022).
≈ marks a conversion by molar mass, not a printed value. Read-outs that look alike come from different tables or passages of the source.

How the values were obtained:
[1] = system: Staphylococcus aureus ATCC 43300 MRSA; experiment: Forced evolution of resistance, 20 days serial passage and drug-free passages; assay type: cell-based; details: for MIC: Staphylococcus aureus
Experimental: The collaborator supplied sample as dry material. A stock solution at 10 mg/mL in neat DMSO was prepared.
The tested bacteria was Staphylococcus aureus ATCC 43300 MRSA (ID GP_020:02).
The mid log Staphylococcus aureus (ATCC 43300) growth culture was serially diluted and plated on a solid Tryptic Soy Agar (TSA) plates in duplicates and incubated at 37° C. overnight to determine viable colony count.
Staphylococcus aureus (ATCC 43300) was cultured in CaMHB at 37° C. overnight, then diluted 40-fold and incubated at 37° C. for a further 2-3 h. […] The plate was covered and incubated at 37° C. for 20 h.
Plate well with the highest drug concentration that permitted growth was then diluted. Despite plates were read by eye, reading at OD600 on the Epoch microplate spectrophotometer was used to adjust growth density of each well (it was approximately 1:1000). Then, 100 μL of the bacteria diluted was added to the new MIC plate. The OD600 was used to calculate the dilution of cells to a density of 10^6 CFU/mL. Bacteria were diluted in CaMHB and 100 μL was added to each well of the next replicate passage. The final well volume was 200 μL with a cell density of 5×10^5 CFU/mL. Each replicate (row) was assess as different strain, for this reason the dilution was done for each replicate.
Once prepared, the plate was covered and incubated at 37° C. overnight. Plate reading, compound preparation and bacterial preparation were repeated from Day 2 to Day 20.
Depending on the MIC of the day before, CBD tested concentrations were established.
Depending on the MIC of the day before, CBD and daptomycin tested concentrations were established to ensure at least three concentrations above, and three concentrations below MIC, based on the previous MIC results. Compounds were prepared in Protein LoBind Eppendorf 1.5 mL safelock tubes, diluting 320 μg/mL stock in DMSO in CaMHB to achieve two-fold the desired testing concentrations. The 100 μL of the selected concentration were added to each well (See FIG. 1). […] It was incubated at 37° C. overnight. Next day the same procedure was repeated.
Following 20 days of passaging in the presence of CBD and daptomycin, each replicate was passaged for 4 days in drug-free media to assess the stability of any induced resistance.
Day 20 plate was read and the same bacterial preparation methodology was followed. Same concentrations used in day 20 for CBD were used for the 4 days drug free passages. […] These concentrations were used for the 4 days drug free passages. Column 11 was used as the drug-free passage well, and column 12 as a negative growth control with 200 μL uninoculated media in each well. Diluted bacteria were added to the plate, one replicate per row, 100 μL per well. The final well volume was 200 μL with a cell density of 5×10^5 CFU/mL in columns 1-11, and CBD concentration range from 16-0.03 μg/mL in columns 1-10 (FIG. 2).
Subsequent drug-free passage plates were prepared in the same manner, except each replicate bacteria was passaged from column 11, the drug-free growth control well.
Alongside the test plate, a culture of S. aureus was passaged for 24 days without CBD, to establish a baseline for non-selective mutations in the growth conditions described.
Six wells were used as a positive growth controls, and six as negative growth controls with uninoculated media.
Subsequent passages were inoculated from well H7. The bacterial growth in H7 was resuspended by pipetting, then plates were read for optical density by spectrophotometer (Biotek Epoch) at 600 nm (OD600). The OD600 was used to calculate the dilution of cells to a density of 10^6 CFU/mL. Bacteria were diluted in CaMHB and 50 μL was added to each well of the next passage.

P. acnes ATCC 6919 = experiment: Anaerobic MIC micro-broth dilution; assay type: cell-based, Cutibacterium acnes (formerly Propionibacterium acnes); details: P. acnes ATCC 6919, anaerobic chamber, BHI, 48 h
[2] = system: S. aureus MRSA (106 strains); experiment: MIC50/MIC90 micro-broth dilution, MRSA strains; assay type: cell-based, Staphylococcus aureus; details: for Staphylococcus aureus MRSA MIC distribution, number of strains: Table 19
[3] = system: Staphylococcus aureus ATCC 43300; experiment: Broth MIC (Example 1); assay type: cell-based; details: Staphylococcus aureus
Experimental: The collaborator supplied sample as dry material. A stock solution at 10 mg/mL in neat DMSO (11.2 mg in 1.12 mL of DMSO) was prepared. The highest concentration tested in the assay was 128 μg/mL and 2% DMSO as a final concentration using 1/20 dilution to achieve these concentrations.

[4] = Protein binding inferred from loss of activity in 50% human serum; assay type: in vitro ADME; details: assuming 3% free responsible for activity
Experimental: The compounds were serially diluted in mixture of 50% of human serum (Sigma; Cat. No. H3667-100ML) along with 50% Cation-adjusted Mueller Hinton Broth (CaMHB; BD, Cat. No. 212322) two-fold across the wells of polystyrene (PS) 96-well plates (Corning; Cat. No. 3370), plated in duplicate. All plates had flat bottom wells and were covered with low-evaporation lids.
All control antibiotics gave inhibitory values within the expected ranges.

Question: With `C=C(C)C1CCC(C)=CC1c1c(O)cc(CCCCC)cc1O` (stereo not drawn) [Cannabidiol, 2-[3-methyl-6-(1-methylethenyl)-2-cyclohexen-1-yl]-5-pentyl-1,3-benzenediol] as the compound, how does the MIC ([1]; 216 h, read-out: measured MIC on Day 9) read?
Answer: 1 µg/mL (≈ 3.18 µM)

Question: What about the MIC ([1]; 312 h, read-out: MIC of replicate 1 at day 13) of the same compound?
Answer: > 7 µg/mL

Question: What about the MIC ([1]; 432 h, read-out: MIC of replicate 1 by day 18) of the same compound?
Answer: > 128 µg/mL

Question: And the MIC ([1]; 480 h, read-out: MIC through the 20 days of assay)?
Answer: 2 to 4 µg/mL (≈ 6.36 to 12.7 µM)

Question: What about the MIC ([1]; read-out: MIC of replicates 2 and 8 on Days 20 and 21) of the same compound?
Answer: 6 to 16 µg/mL

Question: And the “MIC of replicate 1 before the increase” value ([1]; replicate 1)?
Answer: 3.5 µg/mL

Question: What about the MIC (P. acnes ATCC 6919; listed as Cannabidiol (Batch 2)) of the same compound?
Answer: 2/1

Question: What about the MIC (P. acnes ATCC 6919; listed as Cannabidiol (CBD)) of the same compound?
Answer: active

Question: What about the MIC50 ([2]; Staphylococcus aureus, S. aureus MRSA, read-out: MIC 50) of the same compound?
Answer: 2 µg/mL (≈ 6.36 µM)

Question: What about the MIC90 ([2]; Staphylococcus aureus, S. aureus MRSA, read-out: MIC 90) of the same compound?
Answer: 4 µg/mL (≈ 12.7 µM)

Question: What about the “Staphylococcus aureus MRSA MIC distribution, number of strains” value ([2]; MIC 0.015) of the same compound?
Answer: 0

Question: What about the “Staphylococcus aureus MRSA MIC distribution, number of strains” value ([2]; MIC 0.03) of the same compound?
Answer: 0

Question: What about the “Staphylococcus aureus MRSA MIC distribution, number of strains” value ([2]; MIC 0.06) of the same compound?
Answer: 0

Question: What about the “Staphylococcus aureus MRSA MIC distribution, number of strains” value ([2]; MIC 0.5) of the same compound?
Answer: 0

Question: And the “Staphylococcus aureus MRSA MIC distribution, number of strains” value ([2]; MIC 1)?
Answer: 4

Question: What about the “Staphylococcus aureus MRSA MIC distribution, number of strains” value ([2]; MIC 2) of the same compound?
Answer: 82

Question: What about the “Staphylococcus aureus MRSA MIC distribution, number of strains” value ([2]; MIC 4) of the same compound?
Answer: 18

Question: What about the “Staphylococcus aureus MRSA MIC distribution, number of strains” value ([2]; MIC 8) of the same compound?
Answer: 1

Question: What about the “Staphylococcus aureus MRSA MIC distribution, number of strains” value ([2]; MIC 16) of the same compound?
Answer: 0

Question: And the “Staphylococcus aureus MRSA MIC distribution, number of strains” value ([2]; MIC 32)?
Answer: 0

Question: And the MIC ([3]; ATCC43300, CAMHB, read-out: Broth MIC)?
Answer: 1 µg/mL (≈ 3.18 µM)

Question: What about the MIC ([3]; ATCC43300, TSB + 5% Glucose, read-out: Broth MIC) of the same compound?
Answer: 0.5 µg/mL

Question: And the MIC ([3]; ATCC 43300 / MRSA, same strain of MRSA, read-out: standard vegetative cell MIC)?
Answer: 0.5 to 1 µg/mL (≈ 1.59 to 3.18 µM)

Question: And the fraction unbound [4]?
Answer: < 0.03
